# Values of other authors in patent publication US20200253884A1, “NANOBIOLOGIC COMPOSITIONS FOR PROMOTING TRAINED IMMUNITY” (ICAHN SCHOOL OF MEDICINE AT MOUNT SINAI, priority 2017, published 2020).
# Legend:
# [1] = tested on: diffuse large B-cell lymphoma (DLBCL); settings: preliminary results
# multiple cancers = settings: in vivo
Substance,subjects progression-free at the end of the follow-up period ([1]; control group 47%),subjects alive ([1]; control group 62%),clinical activity (multiple cancers),safety profile (multiple cancers)
CT-011: humanized IgG1 monoclonal antibody against PD-1,70%,82%,–,–
Medi 4736: anti-PD-L1 antibody,–,–,durable clinical activity,acceptable safety profile
